What was measured:
[1] = system: SGI-004 Synechococcus strain; assay: Tolerance to free fatty acids in media with increased calcium and magnesium; format: cell-based; conditions: for effect on free fatty acid tolerance / viability: added to 2X and 4X of standard BG-11
Protocol: (§1) The Synechocystis sp. PCC 6803 strain and the SGI-004 Synechococcus strain were both tested to see if calcium and/or magnesium could alleviate the toxic effects of free fatty acid in the media. BG-11 media was used to culture the cells in multiwall plates. Calcium (CaCl2) and magnesium (MgCl2) were added alone and in combination to achieve a concentration two-fold (2×) and four-fold (4×) that of standard BG-11 media. […] PCC 6803. (Table 3). […] At a concentration double that of the BG-11 recipe (approximately 0.5 mM), calcium added a tolerance of up to about 100 mg/L more of free fatty acid for both of the strains.

[2] = system: Synechocystis sp. PCC 6803; assay: as above; format: cell-based; conditions: for effect on free fatty acid tolerance: added to 2X and 4X of standard BG-11
Protocol: as §1

[3] = system: Synechocystis sp. PCC 6803; assay: Growth in calcium-enhanced media up to about one hundred times BG-11 calcium; format: cell-based; conditions: calcium up to about one hundred times standard BG-11 (up to ~25 mM)
Protocol: For large-scale production of fatty acids, calcium (and/or magnesium) supplementation would allow for fatty acids to accumulate during a production phase to be harvested one or more times in a non-continuous mode. Calcium concentrations up to about one hundred times the concentration of calcium in standard BG-11 medium (that is, up to ˜25 mM) have been tested on Synechocystis sp.

PH-SGI-E-0159 = assay: Long-term effect of calcium addition on fatty acid-producing strain, one copy Cc1FatB1; format: cell-based, Synechocystis sp. PCC 6803; conditions: with or without extra calcium addition
Source text: (§2) FIG. 2 provides data on the growth of genetically modified cyanobacterial strains producing free fatty acids in calcium-supplemented media. FIG. 2a is a graph showing the post-IPTG induction growth of cultures (as measure by OD at 730 nm) of Synechocystis PCC 6803 transformed with one (PH-SGI-E-0159-1; “159”) or three (PH-SGI-E-0166-1; “166”) copies of the Cc1FatB1 Cuphea carthagenensis acyl-ACP thioesterase (diamonds, strain 159 in standard BG-11 media; squares, strain 159 in standard BG-11 media supplemented to 10-fold the amount of calcium of BG-11 (˜2.5 mM); triangles, cyanobacterial strain 166 in standard BG-11 media; circles, strain 166 in standard BG-11 media supplemented to 10-fold the amount of calcium of BG-11 (˜2.5 mM)). FIG. 2b is a graph showing the post-IPTG induction free fatty acid production in mg/L of cultures of Synechocystis strains transformed with one (PH-SGI-E-0159-1; “159”) or three (PH-SGI-E-0166-1; “166”) copies of the Cc1FatB1 Cuphea carthagenensis acyl-ACP thioesterase (diamonds, strain 159 in standard BG-11 media; squares, strain 159 in standard BG-11 media supplemented to 10-fold the amount of calcium of BG-11 (˜2.5 mM); triangles, cyanobacterial strain 166 in standard BG-11 media; circles, strain 166 in standard BG-11 media supplemented to 10-fold the amount of calcium of BG-11 (˜2.5 mM)). […]

PH-SGI-E-0166 = assay: Long-term effect of calcium addition on fatty acid-producing strain, three copies Cc1FatB1; format: cell-based, Synechocystis sp. PCC 6803; conditions: ~10× calcium concentration; culture without extra calcium completely bleached after ~12 days of IPTG induction
Source text: as §2

[4] = calcium at double the BG-11 recipe (approximately 0.5 mM)

SMILES | effect on free fatty acid tolerance / viability [1] | effect on free fatty acid tolerance [2] | added tolerance, more free fatty acid tolerated [1, 4] | added tolerance, more free fatty acid tolerated [2, 4] | growth defects in calcium-enhanced media [3] | time cultures continued to grow and stayed green (PH-SGI-E-0159) | culture survival (PH-SGI-E-0166)
[Cl-].[Cl-].[Mg+2] [magnesium, MgCl2] | no discernible protective effect | increased free fatty tolerance |  |  |  |  | 
[Ca+2].[Cl-].[Cl-] [calcium, calcium chloride] | increased free fatty acid tolerance | increased free fatty tolerance | up to 100 mg/L | up to 100 mg/L | no growth defects | at least 31 days | survived

From patent publication US9187726B2, “Culturing a microorganism in a medium with an elevated level of a carboxylate counterion source” (ExxonMobil Research and Engineering Company, priority 2010, dated 2015)
